# How the values were obtained:
# Hepatitis C virus [1] = experiment: Inhibition of HCV replicase complex in cell-free assay; settings: Hepacivirus hominis
# [2] = Ratio of CC50 for Huh7 cells to EC50 for HCV; type: functional, Huh-7
# Hepatitis C virus [3] = experiment: Antiviral activity against HCV by replicon assay
SMILES,IC50 (Hepatitis C virus [1]),Ratio CC50/EC50 [2],EC50 (Hepatitis C virus [3])
NC(=O)c1c(NC(=O)CCc2ccccc2)sc2c1CCCC2,> 100 µM,,
CCc1c(C)sc(NC(=O)CCc2ccccc2)c1C(N)=O,50 µM,3,0.92 µM
CCC1CCc2c(sc(NC(=O)CCc3ccccc3)c2C#N)C1 (stereo not given),> 100 µM,,
CCOC(=O)c1c(NC(=O)CCc2ccccc2)sc(C)c1CC,> 100 µM,,
CC1CCc2c(sc(NC(=O)CCc3ccccc3)c2C(N)=O)C1 (stereo not given),> 100 µM,,
CCc1c(C)sc(NC(=O)CCc2ccccc2)c1C#N,25 µM,3,1.66 µM
CCc1c(C)sc(NC(=O)CCc2ccccc2)c1C(=O)O,> 100 µM,,
Cc1sc(NC(=O)CCc2ccccc2)c(C(N)=O)c1C,> 100 µM,,
CCC1CCc2c(sc(NC(=O)CCc3ccccc3)c2C(N)=O)C1 (stereo not given),30 µM,3,1.95 µM
